Assays:
[1] = target: T1, recombinant human ALK5 (TGF-βR1) protein (Homo sapiens, UniProt P36897); test: Biochemical ALK5 (TGF-βR1) assay to measure pKi (LANCE Ultra ULight kinase assay); details: apparent pKi from pIC50 by Cheng-Prusoff, read-out: ALK5 pKi (converted)
T1 construct: purchased Life Technologies PR9075A
T1 sequence (P36897 34-503): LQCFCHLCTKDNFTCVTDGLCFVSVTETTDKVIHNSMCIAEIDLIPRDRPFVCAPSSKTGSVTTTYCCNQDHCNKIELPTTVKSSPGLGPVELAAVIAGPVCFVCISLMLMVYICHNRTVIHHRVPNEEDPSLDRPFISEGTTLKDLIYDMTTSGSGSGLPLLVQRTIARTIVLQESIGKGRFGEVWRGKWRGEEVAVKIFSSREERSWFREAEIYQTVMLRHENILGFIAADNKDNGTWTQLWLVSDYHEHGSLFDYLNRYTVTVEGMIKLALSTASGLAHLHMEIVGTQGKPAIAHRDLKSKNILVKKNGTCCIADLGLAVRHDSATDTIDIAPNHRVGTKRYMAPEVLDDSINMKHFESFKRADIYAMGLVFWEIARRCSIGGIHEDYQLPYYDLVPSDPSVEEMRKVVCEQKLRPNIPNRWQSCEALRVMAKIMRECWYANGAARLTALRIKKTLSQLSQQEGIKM
Outline: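 After a 60 min room-temperature preincubation of ALK5 with compound, phosphorylation proceeds 60 min at 37 °C on ATP addition (125 μM as 5× stock). Detection: Eu-labelled phospho-Thr1342 Topo IIα antibody in EDTA buffer, pH 7.0; emission 665 nm.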

[2] = test system: TGF-β-stimulated SMAD3 phosphorylation in BEAS-2B cells; test: Cellular ALK5 potency assay, inhibition of TGF-β stimulated pSMAD3 formation in BEAS-2B cells; assay type: cell-based; details: Homo sapiens; inhibition of TGF-β stimulated pSMAD3 formation, BEAS-2B cells; read-out: BEAS2B pIC50 (converted)
Outline: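 SMAD3 phosphorylation was measured by AlphaLISA after 30 min TGF-β stimulation (10 ng/mL final) of BEAS-2B cells preincubated 1 h with compound at 37 °C. Results given as pIC50.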

| Compound | Ki [1] [nM] | IC50 [2] [nM] |
| --- | --- | --- |
| CCOc1nc(-c2ccc3ncc(Br)cc3c2)c(-c2cccc(C)n2)[nH]1 [Compound 1185, 3-bromo-6-[2-ethoxy-5-(6-methyl-2-pyridyl)-1H-imidazol-4-yl]quinoline] | 0.398 to 3.16 | 25.1 to 158 |
| Cc1cccc(-c2[nH]cnc2-c2ccc3ncc(-c4ncc(C(=O)OCCN5CCNCC5)s4)cc3c2)n1 [Compound 1187, 2-piperazin-1-ylethyl 2-[6-[5-(6-methyl-2-pyridyl)-1H-imidazol-4-yl]-3-quinolyl]thiazole-5-carboxylate] | 0.0398 to 0.316 | 25.1 to 158 |
| Cc1cccc(-c2[nH]cnc2-c2ccc3ncc(Br)cc3c2)n1 [Compound 1190, 3-bromo-6-[5-(6-methyl-2-pyridyl)-1H-imidazol-4-yl]quinoline] | 0.0398 to 0.316 | < 20 |
| Cc1cccc(-c2[nH]ncc2-c2ccc3ncc(C(=O)OCCN4CCC[C@H](N)C4)cc3c2)n1 [Compound 1191, 2-[(3S)-3-amino-1-piperidyl]ethyl 6-[5-(6-methyl-2-pyridyl)-1H-pyrazol-4-yl]quinoline-3-carboxylate] | < 0.0316 | 25.1 to 158 |
| Cc1cccc(-c2[nH]cnc2-c2ccc3ncc(-c4ccc(C(=O)OCCNC5CNC5)cn4)cc3c2)n1 [Compound 1192, 2-(azetidin-3-ylamino)ethyl 6-[6-[5-(6-methyl-2-pyridyl)-1H-imidazol-4-yl]-3-quinolyl]pyridine-3-carboxylate] | 0.0398 to 0.316 | 200 to 1260 |
| CN[C@H]1CC[C@@H](OC(=O)c2cnc3ccc(-c4cn[nH]c4-c4cccc(C)n4)cc3c2)CC1 [Compound 1195, [4-(methylamino)cyclohexyl] 6-[5-(6-methyl-2-pyridyl)-1H-pyrazol-4-yl]quinoline-3-carboxylate] | 0.0398 to 0.316 | 25.1 to 158 |
| Cc1cccc(-c2[nH]ncc2-c2ccc3ncc(C(=O)O[C@H]4CC[C@](C)(N)CC4)cc3c2)n1 [Compound 1196, (4-amino-4-methyl-cyclohexyl) 6-[5-(6-methyl-2-pyridyl)-1H-pyrazol-4-yl]quinoline-3-carboxylate] | 0.0398 to 0.316 | < 20 |
| Cc1cccc(-c2[nH]c(O)nc2-c2ccc3ncc(C4=CCC5(CCNCC5)CC4)cc3c2)n1 [Compound 1198, 4-[3-(3-azaspiro[5.5]undec-9-en-9-yl)-6-quinolyl]-5-(6-methyl-2-pyridyl)-1H-imidazol-2-ol] | 0.0398 to 0.316 | 200 to 1260 |
| Cc1cccc(-c2[nH]ncc2-c2ccc3nccc(C(=O)O[C@H]4CC[C@@H](N)CC4)c3c2)n1 [Compound 1199, (4-aminocyclohexyl) 6-[5-(6-methyl-2-pyridyl)-1H-pyrazol-4-yl]quinoline-4-carboxylate] | 3.98 to 31.6 | 200 to 1260 |
| Cc1cccc(-c2[nH]cnc2-c2ccc3ncc(-c4csc(C(=O)O[C@H]5CC[C@](C)(N)CC5)c4)cc3c2)n1 [Compound 1200, (4-amino-4-methyl-cyclohexyl) 4-[6-[5-(6-methyl-2-pyridyl)-1H-imidazol-4-yl]-3-quinolyl]thiophene-2-carboxylate] | 0.0398 to 0.316 | 25.1 to 158 |
| Cc1cccc(-c2[nH]ncc2-c2ccc3ncc(C(=O)O[C@H]4CCCNC4)cc3c2)n1 [Compound 1201, [(3S)-3-piperidyl] 6-[5-(6-methyl-2-pyridyl)-1H-pyrazol-4-yl]quinoline-3-carboxylate] | 0.0398 to 0.316 | 25.1 to 158 |
| COc1nc(-c2ccc3ncc(Br)cc3c2)c(-c2cccc(C)n2)[nH]1 [Compound 1202, 3-bromo-6-[2-methoxy-5-(6-methyl-2-pyridyl)-1H-imidazol-4-yl]quinoline] | 0.398 to 3.16 | 25.1 to 158 |
| Cc1cccc(-c2[nH]ncc2-c2ccc3ncc(C(=O)O[C@@H]4CCCNC4)cc3c2)n1 [Compound 1203, [(3R)-3-piperidyl] 6-[5-(6-methyl-2-pyridyl)-1H-pyrazol-4-yl]quinoline-3-carboxylate] | 0.0398 to 0.316 | 25.1 to 158 |
| Cc1cccc(-c2[nH]ncc2-c2ccc3ncc(C(=O)OCCC4CNC4)cc3c2)n1 [Compound 1204, 2-(azetidin-3-yl)ethyl 6-[5-(6-methyl-2-pyridyl)-1H-pyrazol-4-yl]quinoline-3-carboxylate] | < 0.0316 | 25.1 to 158 |
| Cc1cccc(-c2[nH]ncc2-c2ccc3ncc(C(=O)OC[C@@H]4CCCCN4)cc3c2)n1 [Compound 1205, [(2S)-2-piperidyl]methyl 6-[5-(6-methyl-2-pyridyl)-1H-pyrazol-4-yl]quinoline-3-carboxylate] | 0.0398 to 0.316 | < 20 |
| Cc1cccc(-c2[nH]cnc2-c2ccc3ncc(C4=CCC5(CCNC(=O)C5)CC4)cc3c2)n1 (centres unmarked) [Compound 1206, 9-[6-[5-(6-methyl-2-pyridyl)-1H-imidazol-4-yl]-3-quinolyl]-3-azaspiro[5.5]undec-9-en-4-one] | < 0.0316 | 25.1 to 158 |
| Cc1cccc(-c2[nH]cnc2-c2ccc3ncc(-c4csc(C(=O)OC[C@H]5CCCCN5)c4)cc3c2)n1 [Compound 1207, [(2R)-2-piperidyl]methyl 4-[6-[5-(6-methyl-2-pyridyl)-1H-imidazol-4-yl]-3-quinolyl]thiophene-2-carboxylate] | < 0.0316 | 25.1 to 158 |
| Cc1cccc(-c2[nH]cnc2-c2ccc3nccc(C(=O)O[C@H]4CC[C@](C)(N)CC4)c3c2)n1 [Compound 1209, (4-amino-4-methyl-cyclohexyl) 6-[5-(6-methyl-2-pyridyl)-1H-imidazol-4-yl]quinoline-4-carboxylate] | 0.398 to 3.16 | 25.1 to 158 |
| Cc1cccc(-c2[nH]ncc2-c2ccc3nccc(C(=O)OC4CCNCC4)c3c2)n1 [Compound 1210, 4-piperidyl 6-[5-(6-methyl-2-pyridyl)-1H-pyrazol-4-yl]quinoline-4-carboxylate] | 0.0398 to 0.316 | 25.1 to 158 |
| Cc1cccc(-c2[nH]ncc2-c2ccc3ncc(C(=O)OCCN4CC[C@@H](N)C4)cc3c2)n1 [Compound 1211, 2-[(3R)-3-aminopyrrolidin-1-yl]ethyl 6-[5-(6-methyl-2-pyridyl)-1H-pyrazol-4-yl]quinoline-3-carboxylate] | 0.0398 to 0.316 | 25.1 to 158 |
| Cc1cccc(-c2[nH]cnc2-c2ccc3ncc(-c4ccc(C(=O)OCCN5CCN6CCCC6C5)cn4)cc3c2)n1 (centres unmarked) [Compound 1212, 2-(3,4,6,7,8,8a-hexahydro-1H-pyrrolo[1,2-a]pyrazin-2-yl)ethyl 6-[6-[5-(6-methyl-2-pyridyl)-1H-imidazol-4-yl]-3-quinolyl]pyridine-3-carboxylate] | 0.0398 to 0.316 | 25.1 to 158 |
| Cc1cccc(-c2[nH]cnc2-c2ccc3ncc(-c4csc(C(=O)OC[C@@H]5CCCCN5)c4)cc3c2)n1 [Compound 1213, [(2S)-2-piperidyl]methyl 4-[6-[5-(6-methyl-2-pyridyl)-1H-imidazol-4-yl]-3-quinolyl]thiophene-2-carboxylate] | < 0.0316 | 25.1 to 158 |
| Cc1cccc(-c2[nH]cnc2-c2ccc3ncc(-c4ccc(C(=O)OCCN5CCC[C@H](N)C5)cn4)cc3c2)n1 [Compound 1214, 2-[(3S)-3-amino-1-piperidyl]ethyl 6-[6-[5-(6-methyl-2-pyridyl)-1H-imidazol-4-yl]-3-quinolyl]pyridine-3-carboxylate] | 0.0398 to 0.316 | 25.1 to 158 |
| Cc1cccc(-c2[nH]ncc2-c2ccc3ncc(C(=O)OC4CCC(N)CC4)cc3c2)n1 (centres unmarked) [Compound 1216, (4-aminocyclohexyl) 6-[5-(6-methyl-2-pyridyl)-1H-pyrazol-4-yl]quinoline-3-carboxylate] | 0.0398 to 0.316 | < 20 |
| Cc1cccc(-c2[nH]ncc2-c2ccc3nccc(C(=O)O[C@H]4CC[C@H](N)CC4)c3c2)n1 [Compound 1217, (4-aminocyclohexyl) 6-[5-(6-methyl-2-pyridyl)-1H-pyrazol-4-yl]quinoline-4-carboxylate] | 0.398 to 3.16 | 25.1 to 158 |
| Cc1cccc(-c2[nH]ncc2-c2ccc3ncc(C(=O)O[C@H]4CCNC4)cc3c2)n1 [Compound 1218, [(3S)-pyrrolidin-3-yl]6-[5-(6-methyl-2-pyridyl)-1H-pyrazol-4-yl]quinoline-3-carboxylate] | 0.0398 to 0.316 | 25.1 to 158 |
| Cc1cccc(-c2[nH]cnc2-c2ccc3ncc(-c4csc(C(=O)OC[C@H]5CCCN5)c4)cc3c2)n1 [Compound 1219, [(2R)-pyrrolidin-2-yl]methyl 4-[6-[5-(6-methyl-2-pyridyl)-1H-imidazol-4-yl]-3-quinolyl]thiophene-2-carboxylate] | < 0.0316 | 25.1 to 158 |
| Cc1cccc(-c2[nH]cnc2-c2ccc3ncc(-c4csc(C(=O)OCCN5CC[C@@H](N)C5)c4)cc3c2)n1 [Compound 1220, 2-[(3R)-3-aminopyrrolidin-1-yl]ethyl 4-[6-[5-(6-methyl-2-pyridyl)-1H-imidazol-4-yl]-3-quinolyl]thiophene-2-carboxylate] | 0.0398 to 0.316 | 25.1 to 158 |
